Measured values: PubChem BioAssay AID1159565 (GlaxoSmithKline (GSK), 2015)
Active and inactive are the calls of the source. No rule for the calls is given here.

Tested on: T. cruzi-infected H9C2 cardiomyocytes, high-content imaging
Assay: anti-T. cruzi activity in infected cardiomyocytes – imaging, H9C2 host cardiomyocytes, host toxicity (AID 1159565);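 also: infected cells incubated 72 h after plating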
[1] = measured here: H9C2 host cell toxicity
[2] = measured here: amastigotes per cell

SMILES	IC50	IC50 [1] [µM]	IC50 [2] [µM]
O=S(=O)(NCC(c1cccnc1)N1CCN(c2ccc(F)cc2)CC1)c1cccs1 (stereo not drawn)	0.13 µM	> 50	0.13
Cc1cc2cncn2c(C2CCCCN2C(=O)c2cccs2)n1 (stereo not drawn)	0.063 µM	> 50	0.063
CCN(CC)c1ccc(S(=O)(=O)N(CC)CC)c2nonc12	50 µM	> 50	20
COc1ccc(Nc2nc(-c3ccccn3)cc(N3CCCC(O)C3)n2)cc1 (stereo not drawn)	5 µM	4	7.9
CS(=O)(=O)c1ccc(Nc2nccc(Nc3n[nH]c4ccc(F)cc34)n2)c(F)c1	32 µM	16	4
CCC(=O)Nc1ccccc1C(=O)Nc1ccccn1	> 50 µM (inactive)	> 50	> 50
C[C@@H](Oc1cc(-n2cnc3ccc(O[C@H]4CCNC4)cc32)sc1C(N)=O)c1ccccc1Cl	13 µM	0.63	6.3
Cc1c(C#N)c([N+](=O)[O-])nn1Cc1cccc(Cl)c1Cl	0.1 µM	> 50	0.04
NC(=O)c1ccsc1NC(=O)c1ccc([N+](=O)[O-])s1	0.13 µM	> 50	0.1
N#Cc1cccc(CN2CCC(c3nc(-c4ccc(C(F)(F)F)nc4)no3)CC2)c1	2 µM	> 50	2.5
c1ccc2[nH]c(-c3ccc(N4CCCC4)nc3)nc2c1	1.6 µM	> 50	1
Cc1nc2nc(C)c(Cc3ccc(C(C)C)cc3)c(=O)n2[nH]1	0.79 µM	> 50	0.25
CC(=O)Nc1ccc(-c2ccnc(Nc3cccc(C#N)c3)n2)cc1	6.3 µM	13	3.2
COc1ccc(-c2nc3ccncc3c(=O)n2CCOc2ccccc2)cc1	0.4 µM	> 50	0.4
CN(Cc1cccnc1)Cc1ccc(N2CCN(C(=O)C3(c4ccc(Cl)cc4)CC3)CC2)nc1	1.6 µM	> 50	1.3
CN1CCC(N(C)c2nccc(N3CCN(C(=O)c4cccc(-c5cccnc5)c4)CC3)n2)CC1	1.3 µM	7.9	1
O=C(CN1CCC2(O)CCCCC2C1c1ccc2c(c1)OCO2)Nc1ccc(Cl)cc1Cl (stereo not drawn)	5 µM	> 50	3.2
CC(=O)Nc1ccc(-c2noc(CC3CCCN(Cc4cccc(F)c4C)C3)n2)cc1 (stereo not drawn)	2 µM	32	1.3
Cc1c(CNC(=O)c2ccc(Cn3cc(Cl)c([N+](=O)[O-])n3)cc2)cnn1C	1.6 µM	> 50	0.79
COc1ccc2ncc(=O)n(CCN3CCC(NCc4ccc(-c5cccs5)cc4)CC3)c2n1	1.6 µM	7.9	0.16
CC(C)(C)c1cc(NC2CC2)nc(-c2ccccn2)n1	1.6 µM	0.32	1.3
CCN(CC)S(=O)(=O)c1ccc(C)c(NC(=O)c2cc(Cl)c3c(c2)OCO3)c1	> 50 µM (inactive)	25	> 50
O=C(Nc1ncc([N+](=O)[O-])s1)C1CC1	1 µM	> 50	0.4
C[C@@H](Oc1cc(-n2cnc3cc(N)ccc32)sc1C(N)=O)c1ccccc1Cl	20 µM	1	5
CCN(CC)c1nc(N(C)C)nc2c1CN(Cc1ccccc1)CC2	20 µM	> 50	4
O=C(NCC(c1cccnc1)N1CCc2ccccc2C1)C(=O)Nc1cccc(Cl)c1 (stereo not drawn)	0.079 µM	25	0.063

SMILES	IC50	IC50 [1] [µM]	IC50 [2] [µM]
Cc1[nH]n2c(=O)c3c(nc2c1-c1ccc(F)cc1)CCCC3	2 µM	> 50	0.79
Cc1ccc(C)c(OC2CCN(C(=O)C(C)n3ccnc3)CC2)c1 (stereo not drawn)	0.4 µM	> 50	0.32
O=C(CC1(O)C(=O)N(Cc2ccccc2)c2ccc(Br)cc21)c1cccnc1 (stereo not drawn)	25 µM	3.2	20
COc1ccc(C(=O)Nc2c(C)nn(COc3cccc(C(F)(F)F)c3)c2C)cc1	40 µM	> 50	25
Cc1[nH]n2c(=O)c3c(nc2c1-c1ccc(Br)cc1)CCCC3	1.6 µM	> 50	0.79
Cc1nc(N2CC(C)OC(C)C2)sc1C(=O)Nc1ccc2c(c1)OCO2 (stereo not drawn)	4 µM	> 50	2.5
Cc1cccnc1NC(=O)c1cccc(OCc2c(C)noc2C)c1	50 µM	2.5	40
Cc1ccc(S(=O)(=O)Nc2ccc(CN3CCN(C(=O)c4cccc(C)c4)CC3)cc2)cc1	0.32 µM	> 50	0.32
N#Cc1ccc(S(=O)(=O)N2CCC3(CCN(c4ccccc4)C3=O)CC2)cc1	1 µM	> 50	0.63
Cn1cc(CN2CCN(c3ccc4c(c3)CCN(C(=O)[C@H]3C[C@@H]3c3ccccc3)CC4)CC2)cn1	3.2 µM	32	0.79
COc1ccc(Cl)cc1CC(=O)Nc1n[nH]c(-c2ccccn2)n1	> 50 µM (inactive)	> 50	10
CN(Cc1ccc(F)cc1)c1ccc(OCC(=O)N2CCCCC2c2cccnc2)nn1 (stereo not drawn)	0.4 µM	> 50	0.4
O=c1cc(CSc2ccc(Cl)cc2)nc(-c2ccccn2)[nH]1	1.6 µM	3.2	0.79
CN(C)c1ncc(-c2cncn2CCOc2ccc(Cl)cc2)cn1	0.25 µM	> 50	0.2
O=C(NCCNc1noc(-c2ccc([N+](=O)[O-])cc2)n1)c1ccc(Cl)cc1	> 50 µM (inactive)	> 50	1.3
Cc1cccc(Nc2nc(-c3ccccn3)cs2)n1	1 µM	0.63	0.79
O=C(Nc1ccc(C(F)(F)F)cc1)NC1(C(=O)NCc2ccco2)CCCCC1	> 50 µM (inactive)	> 50	> 50
Cn1nc(C(=O)N2CCc3ccccc32)c2c1CCS(=O)(=O)C2	13 µM	> 50	7.9
Cc1nc2c(-c3nc(-c4ccc(N)cc4)n[nH]3)cccn2c1C	> 50 µM (inactive)	10	> 50
CN(Cc1nc2ccccc2s1)C(=O)C=Cc1cc2ccccc2o1	0.79 µM	> 50	1
COc1ccccc1-n1c(SCC(=O)Nc2ccc3c(c2)OCO3)nc2c(c1=O)SCC2	16 µM	> 50	7.9
COc1ccc(-c2cnc(C)o2)cc1S(=O)(=O)Nc1ccc(C)cc1C	3.2 µM	> 50	3.2
CNc1nc(C)nc(N2CCc3cc(C(=O)NCc4ccc(-c5ccn[nH]5)cc4Cl)ccc32)n1	> 50 µM (inactive)	20	> 50
O=C(CCCNC(=O)c1ccc(Cl)cc1)Nc1nc(-c2ccccn2)cs1	25 µM	25	10
Cc1cc(C)c(C#N)c(SCC(=O)c2ccc3c(c2)OCO3)n1	0.79 µM	> 50	0.4
